Measured values published in patent US9617267B2, “Compounds and methods for kinase modulation, and indications therefor” (Plexxikon Inc., priority 2009, dated 2017).
Like-named read-outs stand apart in the source and are kept apart here.

How the values were obtained:
[1] = Relative solubility by turbidity threshold concentration in aqueous buffers (pH 1.5, 4.5, 6.8, 7.4); assay type: physicochemical; settings: for turbidity threshold (L, M, H) 1.4: pH 1.4 [sic] (method: SGF pH 1.5); for turbidity threshold (L, M, H) 7.4: pH 7.4 (HEPES); for turbidity threshold (L, M, H) 6.8: pH 6.8 (SIF); for turbidity threshold (L, M, H) 4.5: pH 4.5 (SIF)
Protocol: As an indication of relative solubility, the turbidity of compounds in aqueous solutions is assessed. To assess possible compound properties in different physiological compartments, such as stomach, intestine, and blood, a series of aqueous buffers with varying pH is used. Thus each compound is diluted into four different physiologically relevant buffers and solution turbidity is measured by spectrophotometry.
Compounds are dissolved at a concentration of 25 mM in dimethyl sulfoxide, then serially diluted 1:1 into a 96 well plate, diluting 10 times in pure dimethyl sulfoxide, with the final well of each row a dimethyl sulfoxide blank. In an assay plate, 99 μL of appropriate buffer is added to each well, and 1 μL of each sample dilution is added to the buffer, achieving a range of final total concentrations in aqueous solutions having different pH. The buffers used are Simulated Gastric Fluid (SGF-pH 1.5) 0.5M NaCl, pH 1.5; Simulated Intestinal fluid (SIF-pH 4.5 and pH 6.8) 0.05M NaH2PO4, pH 4.5 and 6.8; and Hepes Buffer (HEPES-pH 7.4) 10 mM HEPES, 150 mM NaCl, pH 7.4. Control compounds pyrene, estriol and propranolol HCl are also assessed. Plates are spun and then mixed for 1 minute, and the absorbance is read using a Tecan Safire II to read wavelengths in the visible range (490, 535, and 650 nm) at four locations per well, reflecting the degree of turbidity present. The average optical density for each wavelength in each well is graphed vs. compound concentration, and the concentration at which the curve crosses a threshold O.D. of 0.01 for each wavelength is reported as the endpoint turbidity assay result. The average of the three wavelengths is used to compare turbidity of compounds. Compounds are considered to have low solubility if the threshold concentration is <31.3 μM, moderate solubility if the threshold concentration is 31.3 μM to 250 μM, and high solubility if the threshold concentration is >250 μm.
The following table indicates the relative solubility (L=low, M=moderate, H=high) based on turbidity threshold concentration at each pH for exemplary compounds according to the invention as indicated: […]

[2] = biological target: c-Raf-1 (Homo sapiens, UniProt P04049); experiment: c-Raf-1 kinase activity biochemical assay (AlphaScreen, biotin-MEK1 phosphorylation)
Chain of c-Raf-1 (P04049 whole entry, looked up): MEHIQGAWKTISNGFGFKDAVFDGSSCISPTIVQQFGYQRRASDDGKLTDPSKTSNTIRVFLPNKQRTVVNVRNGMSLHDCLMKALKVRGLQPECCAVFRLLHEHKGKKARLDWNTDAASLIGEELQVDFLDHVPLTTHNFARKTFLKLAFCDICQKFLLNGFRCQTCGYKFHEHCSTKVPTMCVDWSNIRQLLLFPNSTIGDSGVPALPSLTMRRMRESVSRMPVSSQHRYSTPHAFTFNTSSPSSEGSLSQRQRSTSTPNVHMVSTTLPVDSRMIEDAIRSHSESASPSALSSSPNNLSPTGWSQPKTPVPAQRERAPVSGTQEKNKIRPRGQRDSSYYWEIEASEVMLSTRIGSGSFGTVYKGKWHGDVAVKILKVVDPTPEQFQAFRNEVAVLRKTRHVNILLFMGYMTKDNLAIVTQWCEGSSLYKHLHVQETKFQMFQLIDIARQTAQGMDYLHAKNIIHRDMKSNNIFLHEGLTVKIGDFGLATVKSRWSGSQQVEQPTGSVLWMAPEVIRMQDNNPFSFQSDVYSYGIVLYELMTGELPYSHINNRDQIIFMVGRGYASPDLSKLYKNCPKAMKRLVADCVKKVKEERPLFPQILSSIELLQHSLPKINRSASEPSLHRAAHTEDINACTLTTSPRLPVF
Protocol: (§1) Compounds to be tested are diluted in dimethyl sulfoxide to a concentration of 0.1 mM. These are serially diluted 15 μL into 30 μL of dimethyl sulfoxide seven times in 96 well plates for a total of 8 dilution points, and for each dilution point 1 μL is added to a well of an assay plate. […] The reaction is started with addition of 10 μL of 200 μM ATP (i.e. final 100 μM ATP). After incubation of the kinase reaction for 45 minutes at room temperature, 5 μL/well of Stop Solution is added (25 mM Hepes pH 7.5, 100 mM EDTA, 0.01% BSA with donor beads (Streptavidin coated beads, Perkin Elmer), acceptor beads (Protein A coated, Perkin Elmer), and anti phosphor MEK1/2 antibody (CellSignal), each at final concentration 10 μg/mL). The plates are incubated for 3 hours at room temperature and read on Envision reader (Perkin Elmer). […] The signal vs. compound concentration is used to determine the IC50.

[3] = biological target: B-Raf V600E (Homo sapiens (Human), UniProt P15056, V600E); experiment: B-Raf V600E kinase activity biochemical assay (AlphaScreen, biotin-MEK1 phosphorylation); settings: for IC50: B-Raf V600E; for Biochemical activity ratio V600E/C: ratio of IC50 B-Raf V600E / c-Raf-1
Chain of B-Raf V600E (P15056 whole entry V600E): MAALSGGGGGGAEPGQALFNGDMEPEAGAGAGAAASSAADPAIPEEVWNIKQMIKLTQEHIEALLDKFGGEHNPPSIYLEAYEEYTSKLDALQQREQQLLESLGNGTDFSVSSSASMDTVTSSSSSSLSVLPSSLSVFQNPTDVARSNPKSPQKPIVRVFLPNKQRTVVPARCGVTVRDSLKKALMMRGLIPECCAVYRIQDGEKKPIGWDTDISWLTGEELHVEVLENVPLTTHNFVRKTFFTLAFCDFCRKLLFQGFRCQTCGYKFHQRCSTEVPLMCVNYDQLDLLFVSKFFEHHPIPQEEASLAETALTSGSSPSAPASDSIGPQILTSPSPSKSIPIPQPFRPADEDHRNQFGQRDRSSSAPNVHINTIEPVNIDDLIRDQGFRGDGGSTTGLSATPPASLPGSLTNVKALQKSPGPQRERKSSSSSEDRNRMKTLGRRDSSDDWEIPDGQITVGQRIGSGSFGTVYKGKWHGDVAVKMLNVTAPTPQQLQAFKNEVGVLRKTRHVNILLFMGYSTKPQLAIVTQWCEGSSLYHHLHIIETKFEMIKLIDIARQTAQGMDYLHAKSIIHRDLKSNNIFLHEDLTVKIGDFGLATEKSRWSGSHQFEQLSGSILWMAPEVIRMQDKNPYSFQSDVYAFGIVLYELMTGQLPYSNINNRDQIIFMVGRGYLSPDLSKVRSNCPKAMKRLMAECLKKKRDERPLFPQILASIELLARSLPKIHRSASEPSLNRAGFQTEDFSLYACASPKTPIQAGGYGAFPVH
Protocol: as §1

[4] = biological target: CYP1A2 (Homo sapiens (Human), UniProt P05177); experiment: CYP enzyme inhibition, fluorescent substrate (CEC)
Chain of CYP1A2 (P05177 whole entry): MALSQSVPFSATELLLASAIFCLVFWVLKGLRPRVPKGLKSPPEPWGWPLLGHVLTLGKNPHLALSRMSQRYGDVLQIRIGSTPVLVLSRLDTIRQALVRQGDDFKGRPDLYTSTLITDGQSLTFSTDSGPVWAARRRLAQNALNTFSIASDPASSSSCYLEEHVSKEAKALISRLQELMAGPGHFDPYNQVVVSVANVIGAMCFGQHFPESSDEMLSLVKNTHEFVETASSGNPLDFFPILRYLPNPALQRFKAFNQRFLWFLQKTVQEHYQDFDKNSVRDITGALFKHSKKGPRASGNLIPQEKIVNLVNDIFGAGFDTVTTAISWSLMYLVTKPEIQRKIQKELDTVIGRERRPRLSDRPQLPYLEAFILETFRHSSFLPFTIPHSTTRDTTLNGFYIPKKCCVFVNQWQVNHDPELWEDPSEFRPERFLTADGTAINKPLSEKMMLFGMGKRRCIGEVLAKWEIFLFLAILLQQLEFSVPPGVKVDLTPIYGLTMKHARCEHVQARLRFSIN
Protocol: (§2) CYP (Cytochrome P450) enzymes are the major drug metabolizing enzymes present in the liver. The inhibition of CYP enzyme activity (IC50) for each of CYP1A2, CYP2C19, CYP2C9, CYP2D6, CYP3A4(BFC) and CYP3A4(BQ) is determined for compounds, where inhibition of metabolism of a known substrate leads to a decrease in the fluorescence of the metabolized product. The fluorescence of the product is monitored as a function of compound concentration.
(§3) Compounds are dissolved in dimethyl sulfoxide to a concentration of 100 mM. These are diluted 1 μL into 82 μL of acetonitrile. An 11 μL aliquot of this solution is then added to 204 μL of cofactor mix (1.3% NADPH Regeneration system Solution A, 1.04% NADPH Regeneration system Solution B from BD Biosciences, 5% acetonitrile and 0.05% dimethyl sulfoxide). These are then serially diluted 1:1 (160 μL to 160 μL co-factor mix) for a total of 10 points. A 10 μL aliquot of this final mixture is dispensed into 384 well assay plates and incubated for 10 minutes at 37° C. Enzyme and substrate mix (10 μL; 0.5 pmol CYP1A2/5 μM CEC; 1.0 pmol CYP2C9/75 μM MFC; 0.5 pmol CYP2C19/25 μM CEC; 1.5 pmol CYP2D6/1.5 μM AMMC; 1.0 pmol CYP3A4/50 μM BFC; or 1.0 pmol CYP3A4/40 μM BQ) is added to these assay plates. Assay plates are incubated at 37° C. (CYP1A2-15 min; CYP2C9-45 min; CYP2C19, 2D6 and 3A4-30 min) and read in a Tecan Safire 2 plate reader (CYP1A2, 2C19 and 3A4 409 ex/460 em; CYP2C9 and 2D6 409 ex/530 em). The signal versus compound concentration is used to determine the IC50. The enzymes and substrates for this assay are obtained from BD Biosciences.

[5] = biological target: B-Raf (Homo sapiens (Human), UniProt P15056); experiment: B-Raf kinase activity biochemical assay (AlphaScreen, biotin-MEK1 phosphorylation); settings: B-Raf
Chain of B-Raf (Homo sapiens (Human), UniProt P15056) (P15056 whole entry): as the sequence (P15056 whole entry V600E) above, with E600V counted along it
Protocol: as §1

[6] = tested on: B-Raf; experiment: as above; settings: for Biochemical activity ratio B/V600E: ratio of IC50 B-Raf / B-Raf V600E; for Biochemical activity ratio B/C: ratio of IC50 B-Raf / c-Raf-1
Protocol: as §1

[7] = biological target: CYP2C19 (Homo sapiens (Human), UniProt P33261); experiment: CYP enzyme inhibition, fluorescent substrate (CEC)
Chain of CYP2C19 (P33261 whole entry): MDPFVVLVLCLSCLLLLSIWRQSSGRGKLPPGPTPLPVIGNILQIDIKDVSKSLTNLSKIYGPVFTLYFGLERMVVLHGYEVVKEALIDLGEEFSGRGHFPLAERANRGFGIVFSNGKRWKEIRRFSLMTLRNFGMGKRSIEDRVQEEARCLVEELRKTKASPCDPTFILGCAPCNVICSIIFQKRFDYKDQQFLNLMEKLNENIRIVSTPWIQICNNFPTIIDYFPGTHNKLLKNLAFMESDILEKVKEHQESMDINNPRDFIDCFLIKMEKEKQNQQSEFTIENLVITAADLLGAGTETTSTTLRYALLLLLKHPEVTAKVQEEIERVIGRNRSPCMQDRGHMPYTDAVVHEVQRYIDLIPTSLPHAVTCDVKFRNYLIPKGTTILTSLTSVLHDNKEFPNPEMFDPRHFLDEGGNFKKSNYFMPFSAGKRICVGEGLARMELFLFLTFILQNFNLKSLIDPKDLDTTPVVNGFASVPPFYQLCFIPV
Protocol: as §2
(§4) Compounds are dissolved in dimethyl sulfoxide to a concentration of 100 mM. These are diluted 1 μL into 82 μL of acetonitrile. […] These are then serially diluted 1:1 (160 μL to 160 μL co-factor mix) for a total of 10 points. A 10 μL aliquot of this final mixture is dispensed into 384 well assay plates and incubated for 10 minutes at 37° C. […] Assay plates are incubated at 37° C. […] The signal versus compound concentration is used to determine the IC50. The enzymes and substrates for this assay are obtained from BD Biosciences.

[8] = biological target: CYP2D6 (Homo sapiens (Human), UniProt P10635); experiment: CYP enzyme inhibition, fluorescent substrate (AMMC); assay type: in vitro ADME; settings: read-out: Cyp IC50 2D6
Chain of CYP2D6 (P10635 whole entry): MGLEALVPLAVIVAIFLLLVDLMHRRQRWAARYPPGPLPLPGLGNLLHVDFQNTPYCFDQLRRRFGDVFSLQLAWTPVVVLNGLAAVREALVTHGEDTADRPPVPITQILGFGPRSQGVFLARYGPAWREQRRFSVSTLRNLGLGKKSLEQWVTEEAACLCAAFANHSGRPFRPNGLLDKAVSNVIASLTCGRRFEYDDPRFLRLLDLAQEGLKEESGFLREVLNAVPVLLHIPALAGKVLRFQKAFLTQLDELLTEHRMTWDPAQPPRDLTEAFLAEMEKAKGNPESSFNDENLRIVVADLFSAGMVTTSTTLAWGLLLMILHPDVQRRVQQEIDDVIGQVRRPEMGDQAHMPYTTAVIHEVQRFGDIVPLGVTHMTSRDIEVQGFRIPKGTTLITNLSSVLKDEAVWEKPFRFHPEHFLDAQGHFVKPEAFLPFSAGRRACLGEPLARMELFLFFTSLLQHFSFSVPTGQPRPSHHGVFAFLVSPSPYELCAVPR
Protocol: as §2, §3

[9] = biological target: CYP3A4(BFC) (Homo sapiens (Human), UniProt P08684); experiment: CYP enzyme inhibition, fluorescent substrate BFC
Chain of CYP3A4(BFC) (P08684 whole entry): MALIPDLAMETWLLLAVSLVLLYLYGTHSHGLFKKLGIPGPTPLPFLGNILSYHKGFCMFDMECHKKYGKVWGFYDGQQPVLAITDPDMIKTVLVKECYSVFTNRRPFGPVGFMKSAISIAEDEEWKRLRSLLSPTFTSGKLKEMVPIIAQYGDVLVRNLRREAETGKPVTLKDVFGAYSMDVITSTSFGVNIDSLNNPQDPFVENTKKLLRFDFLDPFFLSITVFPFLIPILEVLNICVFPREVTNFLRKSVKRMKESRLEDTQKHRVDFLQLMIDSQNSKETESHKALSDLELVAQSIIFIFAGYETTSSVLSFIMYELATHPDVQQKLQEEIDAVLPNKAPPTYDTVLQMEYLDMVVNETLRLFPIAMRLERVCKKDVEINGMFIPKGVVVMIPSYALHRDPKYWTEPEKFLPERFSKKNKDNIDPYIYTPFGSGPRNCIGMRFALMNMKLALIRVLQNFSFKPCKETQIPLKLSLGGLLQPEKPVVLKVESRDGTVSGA
Protocol: as §2, §4

[10] = biological target: CYP2C9 (Homo sapiens (Human), UniProt P11712); experiment: CYP enzyme inhibition, fluorescent substrate (MFC)
Chain of CYP2C9 (P11712 whole entry): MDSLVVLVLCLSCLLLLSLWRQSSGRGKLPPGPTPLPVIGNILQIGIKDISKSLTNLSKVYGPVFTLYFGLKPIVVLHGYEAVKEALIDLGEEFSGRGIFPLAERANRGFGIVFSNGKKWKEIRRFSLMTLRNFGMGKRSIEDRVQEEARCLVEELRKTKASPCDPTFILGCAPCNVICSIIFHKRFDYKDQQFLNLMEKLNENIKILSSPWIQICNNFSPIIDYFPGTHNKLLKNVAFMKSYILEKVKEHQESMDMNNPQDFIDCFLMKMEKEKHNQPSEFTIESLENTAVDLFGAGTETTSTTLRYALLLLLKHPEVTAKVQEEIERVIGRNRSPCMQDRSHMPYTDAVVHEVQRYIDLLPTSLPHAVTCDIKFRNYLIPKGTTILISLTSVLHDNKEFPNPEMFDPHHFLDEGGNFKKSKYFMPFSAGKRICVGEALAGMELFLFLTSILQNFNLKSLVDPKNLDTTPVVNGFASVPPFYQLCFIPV
Protocol: as §2, §4

[11] = read-out: Cyp IC50 3A4(BFC), CYP3A4, substrate BFC
[12] = read-out: Cyp IC50 2C19, CYP2C19, substrate CEC
[13] = read-out: Cyp IC50 2C9, CYP2C9, substrate MFC

| SMILES | turbidity threshold (L, M, H) 1.4 [1] | turbidity threshold (L, M, H) 7.4 [1] | IC50 [2] | IC50 [3] | Biochemical activity ratio V600E/C [3] | IC50 ([4]; read-out: Cyp IC50 1A2, CYP1A2, substrate CEC) | IC50 [5] | Biochemical activity ratio B/V600E [6] | Biochemical activity ratio B/C [6] | IC50 [7] | IC50 [8] | IC50 [9, 11] | IC50 [10] | turbidity threshold (L, M, H) 6.8 [1] | IC50 ([4]; human, 15 min) | IC50 [7, 12] | IC50 [10, 13] | IC50 [9] | turbidity threshold (L, M, H) 4.5 [1] |
| --- | --- | --- | --- | --- | --- | --- | --- | --- | --- | --- | --- | --- | --- | --- | --- | --- | --- | --- | --- |
| CC(C)c1ncnc2[nH]cc(C(=O)c3c(F)ccc(NS(=O)(=O)c4ccc(C(F)(F)F)cc4)c3F)c12 [P-1029, N-[2,4-Difluoro-3-(4-isopropyl-7H-pyrrolo[2,3-d]pyrimidine-5-carbonyl)-phenyl]-4-trifluoromethyl-benzenesulfonamide] | M (moderate solubility if the threshold concentration is 31.3 μM to 250 μM) | M (moderate solubility if the threshold concentration is 31.3 μM to 250 μM) | < 0.1 µM | > 0.1 µM | >10 | > 10 µM | < 0.1 µM | 0.1-10 | >10 | 5 to 10 µM | > 10 µM | > 10 µM | 5 to 10 µM | – | – | – | – | – | – |
| CNc1ncnc2[nH]cc(C(=O)c3c(F)ccc(NS(=O)(=O)c4ccc(C(F)(F)F)cc4)c3F)c12 [P-1026, N-[2,4-Difluoro-3-(4-methylamino-7H-pyrrolo[2,3-d]pyrimidine-5-carbonyl)-phenyl]-4-trifluoromethyl-benzenesulfonamide] | – | M (moderate solubility if the threshold concentration is 31.3 μM to 250 μM) | < 0.1 µM | > 0.1 µM | >10 | – | > 0.1 µM | 0.1-10 | >10 | – | > 10 µM | > 10 µM | – | M (moderate solubility if the threshold concentration is 31.3 μM to 250 μM) | > 10 µM | > 10 µM | > 10 µM | – | – |
| CC(C)CNc1ncnc2[nH]cc(C(=O)c3c(F)ccc(NS(=O)(=O)c4ccc(C(F)(F)F)cc4)c3F)c12 [P-1020, N-[2,4-Difluoro-3-(4-isobutylamino-7H-pyrrolo[2,3-d]pyrimidine-5-carbonyl)-phenyl]-4-trifluoromethyl-benzenesulfonamide] | H (high solubility if the threshold concentration is >250 μm) | H (high solubility if the threshold concentration is >250 μm) | < 0.1 µM | > 0.1 µM | >10 | – | < 0.1 µM | 0.1-10 | >10 | – | > 10 µM | > 10 µM | – | – | > 10 µM | > 10 µM | > 10 µM | – | – |
| CCCc1ccc(S(=O)(=O)Nc2ccc(F)c(C(=O)c3c[nH]c4ncnc(OCC)c34)c2F)cc1 [P-1038, N-[3-(4-Ethoxy-7H-pyrrolo[2,3-d]pyrimidine-5-carbonyl)-2,4-difluoro-phenyl]-4-propyl-benzenesulfonamide] | – | – | < 0.1 µM | > 0.1 µM | >10 | – | < 0.1 µM | 0.1-10 | >10 | 5 to 10 µM | > 10 µM | – | 5 to 10 µM | – | > 10 µM | – | – | 5 to 10 µM | – |
| O=C(c1c(F)ccc(NS(=O)(=O)c2ccccc2)c1F)c1c[nH]c2nccc(C(F)(F)F)c12 [P-2017, N-[2,4-Difluoro-3-(4-trifluoromethyl-1H-pyrrolo[2,3-b]pyridine-3-carbonyl)-phenyl]-benzenesulfonamide] | L (low solubility if the threshold concentration is <31.3 μM) | M (moderate solubility if the threshold concentration is 31.3 μM to 250 μM) | < 0.1 µM | > 0.1 µM | >10 | – | > 0.1 µM | 0.1-10 | >10 | – | – | – | – | L (low solubility if the threshold concentration is <31.3 μM) | – | – | – | – | L (low solubility if the threshold concentration is <31.3 μM) |
| O=C(c1c(F)ccc(NS(=O)(=O)c2ccc(C(F)(F)F)cc2)c1F)c1c[nH]c2nccc(C(F)(F)F)c12 [P-2016, N-[2,4-Difluoro-3-(4-trifluoromethyl-1H-pyrrolo[2,3-b]pyridine-3-carbonyl)-phenyl]-4-trifluoromethyl-benzenesulfonamide] | L (low solubility if the threshold concentration is <31.3 μM) | M (moderate solubility if the threshold concentration is 31.3 μM to 250 μM) | < 0.1 µM | > 0.1 µM | >10 | – | > 0.1 µM | 0.1-10 | 0.1-10 | – | – | – | – | L (low solubility if the threshold concentration is <31.3 μM) | – | – | – | – | L (low solubility if the threshold concentration is <31.3 μM) |
| CC(C)Cc1ncnc2[nH]cc(C(=O)c3c(F)ccc(NS(=O)(=O)c4ccc(C(F)(F)F)cc4)c3F)c12 [P-1015, N-[2,4-Difluoro-3-(4-isobutyl-7H-pyrrolo[2,3-d]pyrimidine-5-carbonyl)-phenyl]-4-trifluoromethyl-benzenesulfonamide] | – | – | < 0.1 µM | > 0.1 µM | >10 | – | > 0.1 µM | 0.1-10 | >10 | – | > 10 µM | – | – | – | > 10 µM | > 10 µM | > 10 µM | 5 to 10 µM | – |
